Source: paper PMC6923382, “Small molecules that inhibit TNF signalling by stabilising an asymmetric form of the trimer” (Nature Communications, 2019)
“And” between values parts separate entries of the source, which are not always exact repeats. Equal values may be shown once. One block for each molecule: values may come before it.

Tests used:
TNF [1] = molecular target: T1, TNF (Homo sapiens, UniProt P01375); experiment: Thermal denaturation assay of thermal stability; type: binding; parameters: stabilise an asymmetrical form of the soluble TNF trimer
Protocol: A fluorescence probed thermal denaturation assay was performed to assess the effect of the compounds on the thermal stability of TNF (or other members of the TNF family) as a measure of compound binding. The reaction mixture contained 5 µL of 30× SYPRO® Orange dye (Invitrogen) and 5 µL of TNF (at 1 mg/mL), 37.5 μL PBS, pH 7.4 and 2.5 μL of compound (at 2 mM in DMSO). The mixture (10 µL) was dispensed in quadruplicate into a 384 PCR optical well plate and was run on a 7900HT Fast Real-Time PCR System ([…]). The PCR System heating device was set at 20 °C to 99 °C with a ramp rate of 1.1 °C min^−1; fluorescence changes in the wells were monitored by a CCD device. The fluorescence intensity increase was plotted as a function of temperature and the Tm calculated as the midpoint of this denaturation curve (determined as the point of inflection).
Target sequence in this assay (P01375 77-233 limits assumed): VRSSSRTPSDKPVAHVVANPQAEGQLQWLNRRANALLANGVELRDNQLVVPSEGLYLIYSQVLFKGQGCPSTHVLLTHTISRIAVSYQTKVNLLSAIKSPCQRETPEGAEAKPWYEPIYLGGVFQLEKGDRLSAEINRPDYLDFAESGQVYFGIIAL

hTNF/hTNFR1 complex = molecular target: T2, hTNF/hTNFR1 complex (Homo sapiens, UniProt P01375); experiment: Analytical size exclusion chromatography of TNF:TNFR1 stoichiometry; type: biochemical
T2 construct: stabilise an asymmetrical form of the soluble TNF trimer; host or cells: BV (baculovirus) for hTNFR1
Protocol: A stock of compound bound to human (h) TNF was prepared by pre-incubating hTNF (300 μM, molecular weight based on the homotrimer) overnight at 4 °C with UCB-5307 at a final concentration range from 90 μM to 690 μM, maintaining a constant DMSO concentration of 1%. The compound-bound hTNF was incubated for 1 h at 22 °C with hTNFR1 at a 3.2-fold molar excess over homotrimers (final concentrations: hTNFR1 240 μΜ, hTNF 75 µM). Identical samples were prepared with DMSO only, giving a final DMSO concentration of 0.25% for both sets of samples. Alternatively, a fully assembled hTNF/hTNFR1 complex (3 receptors per homotrimer) was formed by incubating hTNF with a 3.2-fold molar excess of hTNFR1 for 1 h at 22 °C. The TNF/TNFR1 complex was then incubated overnight at 4 °C with UCB-5307 at a final concentration range from 90 µM to 690 µM. Samples were subject to analytical size exclusion using HPLC. Injection volumes of 50 µL were separated on a TSK G3000SW L × I.D. 30 cm × 7.5 mm column (10 µm particle size) pre-equilibrated in 10 mM HEPES, pH 7.5, 150 mM NaCl.

TNF [2] = molecular target: T1, TNF; experiment: Biacore kinetics of binding; parameters: Human TNF (CID2043, UniProt P01375 residues 77–233); 6XHis-Smt3 (N, cleaved yes); host or cells: E. coli TOP10; settings: SPR single-cycle, linked TNF with n-terminal HKH tag
Protocol: Surface plasmon resonance using a Biacore T100/T200 was used to measure the association rate constant (ka), the dissociation rate constant (kd) and the affinity (KD) of compounds. TNF (VCID 2043 Beryllium) was immobilised to approximately 5 kRU as described above and equilibrated for at least 5 h in HBS P + buffer with 5% DMSO. UCB-6876 was serially diluted from 187.5 µM, flowing over the immobilised TNF at 50 µL/min for 3 min before allowing full dissociation under flow for at least 6 min. […] […] The compounds were allowed to dissociate for 2 h under flow.
Target sequence in this assay (P01375 with tags, fused parts or gaps): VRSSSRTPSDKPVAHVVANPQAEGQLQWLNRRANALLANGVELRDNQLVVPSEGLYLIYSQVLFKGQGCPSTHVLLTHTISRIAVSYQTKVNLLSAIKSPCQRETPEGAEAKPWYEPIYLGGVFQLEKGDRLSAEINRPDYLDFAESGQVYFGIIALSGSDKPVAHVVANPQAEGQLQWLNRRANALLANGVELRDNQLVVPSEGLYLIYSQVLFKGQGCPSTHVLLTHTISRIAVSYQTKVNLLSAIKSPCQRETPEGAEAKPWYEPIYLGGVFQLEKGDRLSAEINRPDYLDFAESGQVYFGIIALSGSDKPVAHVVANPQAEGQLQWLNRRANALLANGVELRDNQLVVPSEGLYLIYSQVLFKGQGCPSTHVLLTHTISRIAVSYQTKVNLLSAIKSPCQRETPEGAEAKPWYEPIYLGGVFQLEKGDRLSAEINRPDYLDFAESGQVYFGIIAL

TNF (L57F) = molecular target: T3, TNF (L57F) (Homo sapiens, UniProt P01375, L133F); experiment: HEK reporter gene assay, L57F TNF; type: cell-based; settings: 10 pM L57F TNF; HEK NFκΒ reporter
T3 construct: Human TNF (CID2043, UniProt P01375 residues 77–233); 6XHis-Smt3 (N, cleaved yes); host or cells: E. coli
Protocol: Stimulation of HEK-293 cells by TNF leads to activation of the NF-κB pathway. The HEK-Blue^TM CD40L SEAP (secreted embryonic alkaline phosphatase) reporter cell line used to determine TNF activity (InvivoGen, #hkb-CD40, cells were described as mycoplasma free when purchased and were tested using Mycoalert [Lonza] after each batch of assay vial preparation). Compounds were titrated in DMSO and pre-incubated with TNF at a concentration giving half maximal response (10 pM for human or 20 pM for mouse) or the anti-human TNFR1 agonist antibody (R&D Systems. #AF 225) for 1 h. Cells were added to the compound/stimulus mixture and further incubated for 18 h. SEAP was measured using the colorimetric substrate HEK-Blue Detect^TM or QUANTI-Blue^TM from InvivoGen. Percentage inhibitions for compound dilutions were calculated between a DMSO control and maximum inhibition (by excess anti-TNF biologic, or NF-κB inhibitor–TPCA-1 [Tocris #2559, R&D Systems]). The IC50 was determined as the point of inflexion between the fitted minimum and maximum of the compound dose response curve, calculated using 4PL fitted curve. Mean IC50s are reported as a mean of at least two experiments. Dose response curves for TNF and the anti-human TNFR1 agonist antibody are shown in Supplementary Fig. 9. […]
In this assay reduction is luminescence is due to cell killing by TNF and inhibition causes increased luminescence. […]

TNF [3] = molecular target: T1, TNF; experiment: TNF reporter gene assay HEK-293, human TNF; type: cell-based; parameters: stabilise an asymmetrical form of the soluble TNF trimer; settings: 10 pM wild-type TNF; HEK NFκΒ reporter
Protocol: Stimulation of HEK-293 cells by TNF leads to activation of the NF-κB pathway. The HEK-Blue^TM CD40L SEAP (secreted embryonic alkaline phosphatase) reporter cell line used to determine TNF activity (InvivoGen, #hkb-CD40, cells were described as mycoplasma free when purchased and were tested using Mycoalert [Lonza] after each batch of assay vial preparation). […] Cells were added to the compound/stimulus mixture and further incubated for 18 h. SEAP was measured using the colorimetric substrate HEK-Blue Detect^TM or QUANTI-Blue^TM from InvivoGen. […] The IC50 was determined as the point of inflexion between the fitted minimum and maximum of the compound dose response curve, calculated using 4PL fitted curve. Mean IC50s are reported as a mean of at least two experiments.
Target sequence in this assay (P01375 77-233 limits assumed): as the sequence (P01375 77-233 limits assumed) above

[4] = Dynamic light scattering (colloidal aggregation); type: physicochemical; settings: 100 μM; no detergent; 25°C; n=5
Protocol: Dynamic light scattering (DLS) experiments have been performed with compounds […]
baseline control and positive control (miconazole at 100 μM) were included. The radius data […]
compound in the absence of detergent.
DLS data (Malvern Nano ZS). Each sample (150 μl) was measured 5 times in a low volume disposable sizing cuvette at 25°C using 173º non-invasive backscatter (NIBS). […]

TNF [5] = molecular target: T1, TNF; experiment: Biacore SPR fragment binding to immobilised TNF; parameters: Human TNF (CID2043, UniProt P01375 residues 77–233); 6XHis-Smt3 (N, cleaved yes); host or cells: E. coli TOP10; settings: SPR fragment screen; concentration-dependent response
From the text: (§1) BIA (Biomolecular Interaction Analysis) uses SPR to measure the binding of compounds to a protein immobilised on a chip surface. For this purpose a Biacore A100/4000 (GE Healthcare) was used. A CM5 sensor was immobilised via amine coupling on flow cell 1 with human Fc antibody domain (10k response units; kRU) and TNFR-Fc captured (2.5 kRU), flow cell 2 TNF (11 kRU), flow cell 3 was left blank (for non-specific binding), flow cell 4 TNFR-Fc (10 kRU), and flow cell 5 goat anti-human Fc 16 kRU). The sensor surface was then equilibrated in HBS-P (10 mM HEPES pH 7.4, 0.15 M NaCl, 0.005% Surfactant P20, BIAcore, GE Healthcare) with 5% DMSO for at least 5 h. Compounds were diluted from 100 mM stocks into DMSO matched buffer and then flowed over the immobilised flow cells at a concentration of 250 µM at the maximum flow rate of 30 μL/min. Background subtraction binding curves were analysed using the Biacore A100 BIA evaluation software version 1.1 following standard procedures.
Target sequence in this assay (P01375 77-233): as the sequence (P01375 77-233 limits assumed) above

[6] = test system: TNFR1 extracellular domain and control proteins; experiment: Biacore SPR binding to control surfaces; settings: capture antibody plus TNFR1, capture antibody
From the text: as §1

mouse TNF = molecular target: T4, mouse TNF (Mus musculus, UniProt P06804); experiment: Mouse TNF induced neutrophil recruitment in vivo; settings: Etanercept 30 mg/kg i.v.; mouse TNF; individual mice
T4 construct: stabilise an asymmetrical form of the soluble TNF trimer
T4 sequence (P06804 80-235 limits assumed): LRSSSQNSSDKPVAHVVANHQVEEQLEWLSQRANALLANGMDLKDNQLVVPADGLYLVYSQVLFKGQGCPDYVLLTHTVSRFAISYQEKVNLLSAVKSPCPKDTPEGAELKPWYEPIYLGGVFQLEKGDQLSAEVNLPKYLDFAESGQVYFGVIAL
Protocol: All in vivo studies were reviewed by an internal Ethical Review Body (ERB) and conducted in accordance with the Animals (Scientific Procedures) Act 1986, EU Directive 2010/63/EU. […] Anti-TNFα biologics, CDP571[21] (10 mg/kg) and etanercept (30 mg/kg), diluted in PBS, were dosed intravenously prior to human and mouse TNF challenge. Two hours after the TNF challenge, mice were sacrificed and the peritoneal cavity lavaged with 3 mL of FACS buffer. An aliquot (0.3 mL) of lavage fluid was used to assess the number CD45^+GR1^+ cells by flow cytometry. Briefly, the cells were treated with ACK lysis buffer, washed and suspended in FACS buffer prior to staining with FITC anti-mouse CD45 and PE anti-mouse GR1. Data are shown as mean ± standard error of the number of CD45^+GR-1^+ cells. Statistical significance (*p < 0.05, **p < 0.01, ****p < 0.0001) was determined using one-way ANOVA with Dunnett’s multiple comparison test.

[7] = molecular target: T5, Mouse TNF (mouse), P06804; experiment: native MS; human TNF pre-incubated (saturated) with UCB-6876, then mixed 1:1 with mouse TNF; 20 mM ammonium acetate, 4% DMSO in the compound stock; various time points; settings: remark: other sources report otherwise
T5 chain: T4 sequence (P06804 80-235 limits assumed)

[8] = molecular target: T5, Mouse TNF (mouse), P06804; experiment: native MS; mouse and human TNF, each 20 µM in 20 mM ammonium acetate pH 7.4, mixed 1:1 and analysed at various time points; no compound; nanospray, Exactive Plus EMR; settings: remark: other sources report otherwise

T2 sequence (P01375 77-233 limits assumed): as the sequence (P01375 77-233 limits assumed) above
T2 sequence (P19438 43-184 partner limits assumed): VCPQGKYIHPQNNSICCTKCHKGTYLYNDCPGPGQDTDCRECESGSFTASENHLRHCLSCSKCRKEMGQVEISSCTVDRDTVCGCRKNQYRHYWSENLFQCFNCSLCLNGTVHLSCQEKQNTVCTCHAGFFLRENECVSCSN
T3 sequence (P01375 77-233 L133F): as the sequence (P01375 77-233 limits assumed) above, with L57F counted along it

Molecule: Etanercept [reference compound]
- CD45+ GR-1+ cells/mL in the peritoneal cavity (mouse TNF): 6123.9 cells/mL and 7203.0 cells/mL and 3131.9 cells/mL and 6069.0 cells/mL and 1965.3 cells/mL

B1: Mouse TNF, P06804 80-235 (ligand)
chain: T4 sequence (P06804 80-235 limits assumed)
- stoichiometry N [7]: 3
- stoichiometry N [8]: 3

More lines, main results first:

- Tm difference (hTNF + compound) - (hTNF+DMSO) (TNF [1]; DMSO 5%): 12.2 °C
- Tm (mean ± SD) (TNF [1]; hTNF + DMSO (5%) + compound, n=4 replicates): 72.9 ± 0.6 °C
- Tm1 Average (TNF [1]; inhouse hTNF 5% DMSO + compound, 4 wells): 72.9 °C
- Unreviewed - Tm1 (TNF [1]; single wells, inhouse hTNF 5% DMSO + compound, listed as 1445307-000, in °C): 72.4 and 73.5 and 73.2
- effect on preformed hTNF/hTNFR1 complex (hTNF/hTNFR1 complex; 90-690 µM compound, 3.2-fold excess hTNFR1): dislodging one of the receptors
- kd (off-rate) (TNF [2]): 5.76e-05 s⁻¹
- Kd (TNF [2]; read-out: KD): 9 nM
- inhibition of L57F TNF (TNF (L57F)): did not inhibit
- inhibition of wild-type TNF (TNF [3]): inhibited
Molecule: Cc1ccc(C)c(Cn2c(C(O)c3ccncc3)nc3ccccc32)c1 (stereo not shown) [UCB-5307]
- number of TNFR1 bound per hTNF trimer, hTNF preloaded with compound (hTNF/hTNFR1 complex; 90-690 μM compound overnight, then 3.2-fold excess hTNFR1): dose-dependent shift from three receptors bound to two

- colloidal aggregation (DLS radius) [4]: no evidence of colloidal aggregation
- binding to immobilised TNF (TNF [5]): bound to TNF
Molecule: Cc1ccccc1Cn1c(CO)nc2ccccc21 [UCB-6786]
- binding to TNFR1 and control proteins (selectivity) [6]: selectivity over the TNFR1 extracellular domain and control proteins
